The values that follow come from US20260150837A1, “GLUCAN DERIVATIVES FOR MICROBIAL CONTROL” (Nutrition & Biosciences USA 4, Inc., priority 2021, published 2026).

The assay relates to Escherichia coli ATCC 25922. Put plainly: ASTM E3160-18 antibacterial efficacy of treated fabric, with ASTM E3162-18 wash durability. The conditions noted are these: cotton, use level 250-2000 ppm by row; for AM Activity after 25 Real Time Washes: after 25 real time washes (ASTM-E3162-18); for Initial AM Activity: before washing. In kind it is cell-based. As to the method:
(Procedure 1A) Exhaust Method: Alpha-1,6-glucan ether compounds (e.g., as prepared in Materials/Methods) were exhaust-applied using Werner Mathis AG BFA-12 exhaust equipment. Individual formulation baths comprising desired concentrations of a glucan ether polymer in water were prepared. Each fabric sample (20 g) was loosely folded horizontally and placed into a test canister, followed by addition of 200 ml of a bath solution. The canisters were then closed and secured to the rotating wheel of the equipment. The rotation speed of the wheel was set to 35 rpm, switching from clockwise to counterclockwise modes at 1-minute intervals. In each case, the instrument, with the samples already loaded, would first heat up at a selected rate of heating until the target temperature was reached, maintaining the temperature for preset durations, before cooling down to initial temperature. Once the exhaustion process was complete, all the fabric samples were removed from the exhaust canisters and passed through padding equipment (Fanyuan Instruments, DW2010A) set to a pressure of 8.4 kg to squeeze out the excess water. Lastly, each sample was dried in a MATHIS lab dryer LTE for 5 minutes at 120° C.
(Procedure 1B) Padding Method: Alpha-1,6-glucan ether compounds (e.g., as prepared in Materials/Methods) were also applied to fabric samples via a padding process using a MATHIS HF or Fanyuan Instruments (DW2010A) padder. Dry fabric was submerged into a bath containing an aqueous solution of glucan ether compound at a desired concentration in water and passed through padder rollers to squeeze out (applied pressure equaled 3.1 bar) excess treatment solution. Each fabric sample was dried and cured in a MATHIS lab dryer LTE for 5 minutes at 120° C. Each glucan solution was prepared to account for water weight pick-up by each fabric type and their exhaust potential.
(Procedure 2A) ASTM E3160-18: In some cases, an alpha-1,6-glucan ether compound herein was considered to be antimicrobially efficient if it imparted a >3 log10 reduction of bacterial growth as tested by the American Society for Testing and Materials (ASTM) method E3160-18 (Quantitative Evaluation of the Antibacterial Properties of Porous Antibacterial Treated Articles, incorporated herein by reference) at a use level ≤5000 ppm. The ASTM E3160 method was performed as follows: The day before the test, a culture of Escherichia coli of the American Type Culture Collection (ATCC) 25922 was inoculated by transferring a single colony from tryptic soy agar (TSA), using a sterile loop, into a tryptic soy broth (TSB). On the day of the experiment (next day), each fabric sample (treated with an alpha-1,6-glucan ether herein or a control compound, e.g., prepared by Procedure 1A above) was cut into three 0.40-g swatches (about 1×1 inch). Each fabric swatch was placed into a 50-mL sterile specimen cup. On the same day, bacterial/working inoculum was prepared by diluting the overnight culture of E. coli into phosphate buffer supplemented with TSB (1:500) and 0.05% TRITON X-100 to obtain a bacterial concentration that was between 2.5×10^5 colony forming units (CFU)/mL and 1.0×10^6 CFU/mL, with a target concentration of 6×10^5 CFU/mL. All samples were inoculated by applying 0.2 mL of working inoculum in several aliquots directly onto the fabric surface, and were allowed to incubate for 24 hours at 37° C. Samples were neutralized with 10 mL Dey-Engley (D-E) neutralizing buffer and enumerated in triplicate in 96-well plates containing 180 μL TSB by transferring 20 μL of neutralized sample to the top well of the 96-well plates and serially diluting 20 μL down the plate.

For the molecule `CCCCCCCCCCCCCCCCCC[N+](C)(C)CCC[Si](O)(O)O.[Cl-]` [Comparative 3, 3-(trihydroxysilyl)propyldimethyl-octadecyl ammonium chloride], the “AM Activity after 25 Real Time Washes” value is less than 1 log10 log10 reduction and the “Initial AM Activity” value is given as 5 log10 log10 reduction.
For `CCCCCCCCCCCC(=O)N[C@@H](CCCNC(=N)N)C(=O)OCC` [Comparative 5, Lauroyl arginine ethyl ester] the same measures were less than 1 log10 log10 reduction and 5 log10 log10 reduction.
Taken in the same sequence, the figures for `CCCCCCCCCCCC[N+](C)(C)CC(O)CCl.[Cl-]` (centres unmarked) [Comparative 6, 3-chloro-2-hydroxypropyl dodecyldimethylammonium chloride] were less than 2 log10 log10 reduction and 5 log10 log10 reduction.
For `CCCCCCCCCCCC[N+](C)(C)C.[Cl-]` [Comparative 7, dodecyltrimethylammonium chloride] the same measures were less than 1 log10 log10 reduction and 5 log10 log10 reduction.
